“And” between values parts separate entries of the source, which are not always exact repeats. Identical values can stand only once.
Columns and labels:
FimH-CRD [1] = biological target: T1, FimH-CRD (Escherichia coli, UniProt P08191); test: Competitive binding assay by fluorescence polarization, assay 1 (compounds prepared by manual dilution); set-up: species or system E. coli; settings: Assay 1 Kd, 5 nM Alexa 647 mannoside probe, 60 nM FimH-CRD, replicate values in one cell
T1 construct: The first 177 amino acids of the FimH protein are expressed as a fusion protein; thrombin tag (printed as 'fusion protein with thrombin') (cleaved yes); made in house; host or cells: bacteria (pET21b plasmid)
T1 sequence (P08191 22-177): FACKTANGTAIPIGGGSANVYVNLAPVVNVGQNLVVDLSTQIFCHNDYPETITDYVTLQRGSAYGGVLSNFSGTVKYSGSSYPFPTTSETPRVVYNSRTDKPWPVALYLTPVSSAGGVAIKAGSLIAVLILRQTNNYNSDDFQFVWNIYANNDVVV
Experimental: (§1) The first 177 amino acids of the FimH protein are expressed as a fusion protein with thrombin in a pET21b plasmid in bacteria. This FimH protein sequence contains the carbohydrate recognition domain (CRD) and shall be termed FimH-CRD. Following bacterial expression of the protein, the FimH-CRD protein is purified to homogeneity and the thrombin tag removed by protease cleavage. A competitive binding assay by fluorescence polarization is performed using 5 nM of the Alexa 647 mannoside probe and 60 nM of the FimH-CRD. The samples are assayed in a low volume 384 well microtiter plate in a final volume of 20 μl. The final assay buffer conditions are the following, 50 mM Tris-Cl, ph 7.0, 100 mM NaCl, 1 mM EDTA, 5 mM β-mercaptoethanol, 0.05% BSA and 2.5% DMSO. Two assays are performed for FimH, termed assay 1 or assay 2. The assay conditions are the same for both assays except the following: assay 1 has compounds prepared by manual dilution in a serial dilution factor with 12-point dose response while assay 2 has compounds prepared by a robotics system also through a serial dilution factor (12 point dose response) and initially prepared in duplicate in 384 well-Corning polypropylene round bottom plates. The assay 2 plates have compound which is then frozen and must be thawed prior to use. Initially the Alexa 647 probe and the FimH-CRD are added to the assay buffer and then 0.5 μl of test compound (assay 1 or 2) between 0.4 nM to 75 μM final concentration are added (12 point titration with 3-fold serial dilution). Control wells for the Alexa 647 probe are prepared with the same conditions except for the addition of the FimH-CRD protein. Plates are then incubated for 5 hrs at room temperature in the dark and under humid conditions to prevent drying. Plates are read using the SpectraMax Paradigm multi-mode plate reader and the appropriate fluorescent polarization detection cartridge (Alexa-647).
(§2) Alexa 647 mannoside probe is prepared using the similar procedure reported for FAM mannoside (Han, Z. et. al., 2010, J. Med. Chem., 53, 4779) and is described in the scheme below.
(§3) To a blue colored stirred solution of (2S,3S,4S,5S,6R)-2-(4-aminobutoxy)-6-(hydroxymethyl)tetrahydropyran-3,4,5-triol (2.21 mg, 0.009 mmol) and the (2E)-2-[(2E,4E)-5-[3,3-dimethyl-5-sulfonato-1-(3-sulfonatopropyl)indol-1-ium-2-yl]penta-2,4-dienylidene]-3-[6-(2,5-dioxopyrrolidin-1-yl)oxy-6-oxo-hexyl]-3-methyl-1-(3-sulfonatopropyl)indoline-5-sulfonate (Potassium Ion (3)) (4.9 mg, 0.0044 mmol) in DMF (44 μL) is added Et3N (5.4 mg, 7.0 μL, 0.053 mmol) at RT. The solution is stirred at room temperature over night, concentrated, dissolved in water and purified on 12 g C-18 silica gel cartridge on Isolera system using acetonitrile in water (0 to 40%, 10 CV) and followed by lyophilization to afford Alexa 647 mannoside probe (3.3 mg, 34%) as deep blue solid.
(§4) The Kd values of the compounds are determined from dose response curves using twelve concentrations per compound in duplicate. Curves are fitted to data points using Fluorescence Polarization competitive displacement analysis, and Kds are interpolated from the resulting curves using GraphPad Prism software, version […] (GraphPad software Inc., San Diego, Calif., USA).

FimH-CRD [2] = biological target: T1, FimH-CRD; test: Competitive binding assay by fluorescence polarization, assay 2 (compounds prepared by a robotics system, plates frozen and thawed); set-up: species or system E. coli
Experimental: as §1, §2, §3, §4

[3] = test system: bacterial strain LF82 binding to the glycoprotein BSA-(Mannose)3; test: Bacterial Binding Assay (BBA); assay type: cell-based, Escherichia coli; settings: read-out: Bacterial Binding Assay IC50, LF82/Luciferase strain binding to BSA-(Man)3 coated plates, luminescence
In short: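 Inhibition of LF82/luciferase E. coli adhesion is read as luminescence after washing off unbound cells. Compound and bacteria (10^7 per well) are co-incubated 40-75 min at room temperature on wells coated with 0.5-2 μg/mL BSA-(Man)3, with BSA-only wells as background; IC50 values derived.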

[4] = Assay 2 Kd, 5 nM Alexa 647 mannoside probe, 60 nM FimH-CRD, replicate values in one cell
[5] = read-out: Assay 2 Kd, 5 nM Alexa 647 mannoside probe, 60 nM FimH-CRD, replicate values in one cell

Row | SMILES | Kd (FimH-CRD [1]) | Kd (FimH-CRD [2]; [4]) | IC50 [3] [nM] | Kd (FimH-CRD [2]; [5]) [nM]
1 | OC[C@H]1O[C@H](c2ccc([C@H]3O[C@H](CO)[C@@H](O)[C@H](O)[C@@H]3O)cc2)[C@@H](O)[C@@H](O)[C@@H]1O [Compound 1, (2R,3S,4R,5S,6R)-2-(Hydroxymethyl)-6-[4-[(2R,3S,4R,5S,6R)-3,4,5-trihydroxy-6 (hydroxymethyl)tetrahydropyran-2-yl]phenyl]tetrahydropyran-3,4,5-triol] | < 5 nM (2×) and 8 nM | 13 nM and 8 nM | 5270 | –
2 | O=C(NCCCNC(=O)c1cccc([C@H]2O[C@H](CO)[C@@H](O)[C@H](O)[C@@H]2O)c1)c1cccc([C@H]2O[C@H](CO)[C@@H](O)[C@H](O)[C@@H]2O)c1 [Compound 9, (R,R,S,R,S)-N,N′-(Propane-1,3-diyl)bis(3-((2R,3S,4R,5S,6R)-3,4,5-trihydroxy-6-(hydroxymethyl)tetrahydro-2H-pyran-2-yl)benzamide)] | 7 nM and 12 nM | 24 nM | – | –
3 | O=C(NCCCCCNC(=O)c1cccc([C@H]2O[C@H](CO)[C@@H](O)[C@H](O)[C@@H]2O)c1)c1cccc([C@H]2O[C@H](CO)[C@@H](O)[C@H](O)[C@@H]2O)c1 [Compound 11, (R,R,S,R,S)-N,N′-(Pentane-1,5-diyl)bis(3-((2R,3S,4R,5S,6R)-3,4,5-trihydroxy-6-(hydroxymethyl)tetrahydro-2H-pyran-2-yl)benzamide)] | < 5 nM and 11 nM | 16 nM | – | –
4 | OC[C@H]1O[C@H](c2cn([C@H]3O[C@H](CO)[C@@H](O)[C@H](O)[C@@H]3O)nn2)[C@@H](O)[C@@H](O)[C@@H]1O [Compound 42, ((2R,3S,4R,5S,6R)-2-(Hydroxymethyl)-6-[1-[(2S,3S,4S,5S,6R)-3,4,5-trihydroxy-6-(hydroxymethyl)tetrahydropyran-2-yl]triazol-4-yl]tetrahydropyran-3,4,5-triol)] | 114 nM and 377 nM | 140 nM and 145 nM | – | –
5 | OC[C@H]1O[C@H](c2cccc(C#CC#Cc3cccc([C@H]4O[C@H](CO)[C@@H](O)[C@H](O)[C@@H]4O)c3)c2)[C@@H](O)[C@@H](O)[C@@H]1O [Compound 50, ((2R,3S,4R,5S,6R)-2-(Hydroxymethyl)-6-[3-[4-[3-[(2R,3S,4R,5S,6R)-3,4,5-trihydroxy-6-(hydroxymethyl)tetrahydropyran-2-yl]phenyl]buta-1,3-diynyl]phenyl]tetrahydropyran-3,4,5-triol)] | – | 9 nM and < 5 nM (2×) | 950 | –
6 | O=C(Nc1cccc([C@H]2O[C@H](CO)[C@@H](O)[C@H](O)[C@@H]2O)c1)Nc1cccc([C@H]2O[C@H](CO)[C@@H](O)[C@H](O)[C@@H]2O)c1 [Compound 51, (1,3-Bis(3-((2R,3S,4R,5S,6R)-3,4,5-trihydroxy-6-(hydroxymethyl)tetrahydro-2H-pyran-2-yl)phenyl)urea)] | – | 15 nM and < 5 nM | 830 | –
7 | OC[C@H]1O[C@H](c2cccc(CCCCc3cccc([C@H]4O[C@H](CO)[C@@H](O)[C@H](O)[C@@H]4O)c3)c2)[C@@H](O)[C@@H](O)[C@@H]1O [Compound 52, ((2R,3S,4R,5S,6R)-2-(Hydroxymethyl)-6-[3-[4-[3-[(2R,3S,4R,5S,6R)-3,4,5-trihydroxy-6-(hydroxymethyl)tetrahydropyran-2-yl]phenyl]butyl]phenyl]tetrahydropyran-3,4,5-triol)] | – | < 5 nM | 660 | < 5
8 | OC[C@H]1O[C@H](C#Cc2ccc(C#C[C@H]3O[C@H](CO)[C@@H](O)[C@H](O)[C@@H]3O)cc2)[C@@H](O)[C@@H](O)[C@@H]1O [Compound 53, (2R,3S,4R,5S,6R)-2-(Hydroxymethyl)-6-[2-[4-[2-[(2R,3S,4R,5S,6R)-3,4,5-trihydroxy-6-(hydroxymethyl)tetrahydropyran-2-yl]ethynyl]phenyl]ethynyl]tetrahydropyran-3,4,5-triol] | – | < 5 nM | 55 | < 5
9 | OC[C@H]1O[C@H](C#CC#C[C@H]2O[C@H](CO)[C@@H](O)[C@H](O)[C@@H]2O)[C@@H](O)[C@@H](O)[C@@H]1O [Compound 54, (2R,3S,4R,5S,6R)-2-(hydroxymethyl)-6-[4-[(2R,3S,4R,5S,6R)-3,4,5-trihydroxy-6-(hydroxymethyl)tetrahydropyran-2-yl]buta-1,3-diynyl]tetrahydropyran-3,4,5-triol] | – | 16 nM and 30 nM | 1150 | –
10 | OC[C@H]1O[C@H](C/C=C/c2ccc(C#C[C@H]3O[C@H](CO)[C@@H](O)[C@H](O)[C@@H]3O)cc2)[C@@H](O)[C@@H](O)[C@@H]1O [Compound 55, (2R,3S,4R,5S,6R)-2-(Hydroxymethyl)-6-[(E)-3-[4-[2-[(2R,3S,4R,5S,6R)-3,4,5-trihydroxy-6-(hydroxymethyl)tetrahydropyran-2-yl]ethynyl]phenyl]allyl]tetrahydropyran-3,4,5-triol] | – | < 5 nM and 5 nM | 210 | –
11 | OC[C@H]1O[C@H](c2ccc3cc(C#C[C@H]4O[C@H](CO)[C@@H](O)[C@H](O)[C@@H]4O)ccc3c2)[C@@H](O)[C@@H](O)[C@@H]1O [Compound 56, (2R,3S,4R,5S,6R)-2-(Hydroxymethyl)-6-[2-[6-[(2R,3S,4R,5S,6R)-3,4,5-trihydroxy-6-(hydroxymethyl)tetrahydropyran-2-yl]-2-naphthyl]ethynyl]tetrahydropyran-3,4,5-triol] | – | < 5 nM | 20 | < 5
12 | OC[C@H]1O[C@H](C#Cc2cccc(C#C[C@H]3O[C@H](CO)[C@@H](O)[C@H](O)[C@@H]3O)c2)[C@@H](O)[C@@H](O)[C@@H]1O [Compound 57, (2R,3S,4R,5S,6R)-2-(Hydroxymethyl)-6-[2-[3-[2-[(2R,3S,4R,5S,6R)-3,4,5-trihydroxy-6-(hydroxymethyl)tetrahydropyran-2-yl]ethynyl]phenyl]ethynyl]tetrahydropyran-3,4,5-triol] | – | < 5 nM | 27 | < 5
13 | OC[C@H]1O[C@H](C#Cc2ccc3ccc(C#C[C@H]4O[C@H](CO)[C@@H](O)[C@H](O)[C@@H]4O)cc3c2)[C@@H](O)[C@@H](O)[C@@H]1O [Compound 58, (2R,3S,4R,5S,6R)-2-(Hydroxymethyl)-6-[2-[7-[2-[(2R,3S,4R,5S,6R)-3,4,5-trihydroxy-6-(hydroxymethyl)tetrahydropyran-2-yl]ethynyl]-2-naphthyl]ethynyl]tetrahydropyran-3,4,5-triol] | – | < 5 nM | 17 | < 5
14 | OC[C@H]1O[C@H](C#Cc2ccc3cc(C#C[C@H]4O[C@H](CO)[C@@H](O)[C@H](O)[C@@H]4O)ccc3c2)[C@@H](O)[C@@H](O)[C@@H]1O [Compound 59, (2R,3S,4R,5S,6R)-2-(Hydroxymethyl)-6-[2-[6-[2-[(2R,3S,4R,5S,6R)-3,4,5-trihydroxy-6-(hydroxymethyl)tetrahydropyran-2-yl]ethynyl]-2-naphthyl]ethynyl]tetrahydropyran-3,4,5-triol] | – | < 5 nM | 8.2 | < 5
15 | OC[C@H]1O[C@H](C#Cc2cccc3c(C#C[C@H]4O[C@H](CO)[C@@H](O)[C@H](O)[C@@H]4O)cccc23)[C@@H](O)[C@@H](O)[C@@H]1O [Compound 60, (2R,3S,4R,5S,6R)-2-(Hydroxymethyl)-6-[2-[5-[2-[(2R,3S,4R,5S,6R)-3,4,5-trihydroxy-6-(hydroxymethyl)tetrahydropyran-2-yl]ethynyl]-1-naphthyl]ethynyl]tetrahydropyran-3,4,5-triol] | – | < 5 nM | 13 | < 5

From patent US11634447B2 (priority 2012, dated 2023)
